Assay results from ChEMBL document CHEMBL3352240, “Upregulation of both heme oxygenase-1 and ATPase inhibitory factor 1 renders tumoricidal activity by synthetic flavonoids via depleting cellular ATP” (2014).
The source made the active and inactive calls. The rule behind the calls is not given here.

Columns and labels:
MRC5 [1] = assay: Induction of HO-1 expression in human MRC5 cells […] after 24 hrs by immunoblotting analysis relative to control; format: functional
MRC5 [2] = assay: Induction of ATPIF-1 expression in human MRC5 cells […] after 24 hrs by immunoblotting analysis relative to control; format: functional
MRC5 [3] = assay: Cytotoxicity against human MRC5 cells at 30 uM by MTT assay in presence of H2O2; format: functional, cell-based
HCT-116 [4] = assay: Induction of cellular energetics impairment in human HCT116 cells assessed as cellular ATP level by Cell Titre-Glo assay relative to vehicle-treated control; format: functional
HT-29 [5] = assay: Induction of cellular energetics impairment in human HT-29 cells assessed as cellular ATP level by Cell Titre-Glo assay relative to vehicle-treated control; format: functional
HT-29 [6] = assay: Cytotoxicity against human HT-29 cells at 10 to 50 uM after 24 to 48 hrs by MTT assay; format: functional, cell-based
MRC5 [7] = assay: Cytotoxicity against human MRC5 cells by MTT assay in presence of H2O2; format: functional, cell-based
HCT-116 [8] = assay: Cytotoxicity against human HCT116 cells at 10 to 50 uM after 24 to 48 hrs by MTT assay; format: functional, cell-based
HT-29 [9] = assay: Induction of mitochondrial morphology changes in human HT-29 cells assessed as mitochondria with electron dense phenotype and well preserved cristae by microscopic analysis; format: functional, cell-based
HCT-116 [10] = assay: Induction of mitochondrial morphology changes in human HCT116 cells assessed as swelling and damaged mitochondria by microscopic analysis; format: functional, cell-based
HT-29 [11] = assay: Induction of mitochondrial morphology changes in human HT-29 cells assessed as lipid bodies near mitochondria by microscopic analysis; format: functional, cell-based
HT-29 [12] = assay: Cytotoxicity against human HT-29 cells at 20 uM after 24 to 48 hrs by MTT assay; format: functional, cell-based
MRC5 [13] = assay: Induction of apoptosis in human MRC5 cells assessed as downregulation of Bcl2 protein expression in presence of H2O2 by Western blotting method; format: functional, cell-based
MRC5 [14] = assay: Induction of apoptosis in human MRC5 cells assessed as downregulation of Bcl-XL protein expression in presence of H2O2 by Western blotting method; format: functional, cell-based
HT-29 [15] = assay: Induction of ATPIF-1 expression in human HT-29 cells at 20 uM after 48 hrs relative to vehicle-treated control; format: functional, cell-based
HCT-116 [16] = assay: Cytotoxicity against human HCT116 cells at 20 uM after 24 to 48 hrs by MTT assay; format: functional, cell-based
HCT-116 [17] = assay: Cytotoxicity against human HCT116 cells after 24 to 48 hrs by MTT assay; format: functional, cell-based
HCT-116 [18] = assay: Cytotoxicity against human HCT116 cells at 10 to 50 uM by MTT assay; format: functional, cell-based; settings: TDE = time-dependent effect
HCT-116 [19] = assay: Induction of ATPIF-1 expression in human HCT116 cells at 20 uM after 48 hrs relative to vehicle-treated control; format: functional, cell-based
HCT-116 [20] = assay: Cytotoxicity against human HCT116 cells at 30 uM after 24 hrs by MTT assay in presence of HO-1 inhibitor ZnPP; format: functional, cell-based
HCT-116 [21] = assay: Cytotoxicity against human HCT116 cells at 30 uM after 24 hrs by MTT assay in presence of HO-1 inhibitor siRNA; format: functional, cell-based
HT-29 [22] = assay: Cytotoxicity against human HT-29 cells at 30 uM after 24 hrs by MTT assay in presence of HO-1 inducer hemin; format: functional, cell-based
HCT-116 [23] = assay: Induction of apoptosis in human HCT116 cells assessed as PARP cleavage at 20 uM after 48 hrs by Western blotting method; format: functional, cell-based

SMILES	Ratio (MRC5 [1])	Ratio (MRC5 [2])	also measured
C=C[C@@H](c1ccc(OCc2ccccc2)c(OC)c1)c1c(O)cc(OCc2ccccc2)c2c(=O)cc(-c3ccccc3)oc12	1.1	1.5	
C=C[C@@H](c1ccc(OC)c(OC)c1)c1c(O)cc(OC)c2c(=O)cc(-c3ccccc3)oc12	1.1	1.9	
C=C[C@@H](c1ccc(OC)c(OC)c1)c1c(OC)cc(O)c2c(=O)cc(-c3ccccc3)oc12	2.2	2	
C=C[C@@H](c1ccc(O)c(OC)c1)c1c(O)cc(O)c2c(=O)cc(-c3ccccc3)oc12	1.7	2.3	Activity (MRC5 [3]): Active
C=C[C@@H](c1ccc(OC)c(OC)c1)c1c(O)cc(O)c2c(=O)cc(-c3ccccc3)oc12	1.6	1.3	
C=C[C@@H](c1ccccc1)c1c(O)cc(O)c2c(=O)cc(-c3ccccc3)oc12	2.4	1.5	
COc1cc(/C=C/COc2cc(OCc3ccccc3)c3c(=O)cc(-c4ccccc4)oc3c2)ccc1OCc1ccccc1	3	1	Activity (HCT-116 [4]): 79.3%; Activity (HT-29 [5]): 99.2%; Activity (HT-29 [6]): inactive; Activity (MRC5 [3]): inactive; Activity (MRC5 [7]): inactive; Activity (HCT-116 [8]): inactive
C=C[C@@H](c1ccc(OCc2ccccc2)c(OC)c1)c1c(OCc2ccccc2)cc(OCc2ccccc2)c2c(=O)cc(-c3ccccc3)oc12	0.6	2	
C=C[C@@H](c1ccc(O)c(OC)c1)c1c(OC)cc(O)c2c(=O)cc(-c3ccccc3)oc12	3.4	1.8	Activity (HCT-116 [4]): 37.3%; Activity (HT-29 [5]): 37.8%; Activity (HT-29 [9]): Active; Activity (HCT-116 [10]): Active; Activity (HT-29 [11]): Active; Activity (HT-29 [12]): Active; Activity (MRC5 [7]): Active; Activity (MRC5 [13]): Active; Activity (MRC5 [14]): Active; Activity (HT-29 [15]): Active; Activity (HCT-116 [16]): Active; Activity (HCT-116 [17]): Dose-dependent effect; Activity (HCT-116 [18]): tde; Activity (HCT-116 [19]): Active; Activity (HCT-116 [20]): inactive; Activity (HCT-116 [21]): inactive; Activity (HT-29 [22]): Active; Activity (HCT-116 [23]): Active
C=C[C@@H](c1ccc(OC)c(OC)c1)c1c(OC)cc(OC)c2c(=O)cc(-c3ccccc3)oc12	1.5	1.6	
C=C[C@@H](c1ccc(O)c(OC)c1)c1c(O)cc(OC)c2c(=O)cc(-c3ccccc3)oc12	1.8	1.6	
C=C[C@@H](c1ccc(OC)cc1)c1c(O)cc(O)c2c(=O)cc(-c3ccccc3)oc12	1.1	1.8	Activity (MRC5 [7]): inactive
C=C[C@@H](c1ccc(O)c(OC)c1)c1c(O)cc(O)c2c(=O)cc(-c3ccc(OC)cc3)oc12	2.3	1.4	
C=C[C@@H](c1ccc(O)c(OC)c1)c1c(OC)cc(OC)c2c(=O)cc(-c3ccccc3)oc12	2.2	2.3	
